# Results as given in patent US7998978B2 (Pfizer Inc., priority 2006, dated 2011).
# Molecular target: T1, JNK1α1 (Homo sapiens, UniProt P45983)
# T1 construct: catalytic domain containing amino acids 1-364 and N-terminal hexahistidine tag; hexahistidine (His6) (N); made in house; host or cells: E. coli BL21 (DE3)
# Test: Coupled spectrophotometric (PK/LDH) JNK1α1 assay: % inhibition and Ki determination
# Format: biochemical
# Conditions: @1 uM; read-out: % Inhibition JNK-1
# In short: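 Initial rates were taken from the absorbance decrease at 340 nm at 30° C. Ki was fitted with a tight-binding model over 11 concentrations (top 100 μM); single-point inhibition was tested at 1 or 10 μM.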
# T1 sequence (P45983 1-364): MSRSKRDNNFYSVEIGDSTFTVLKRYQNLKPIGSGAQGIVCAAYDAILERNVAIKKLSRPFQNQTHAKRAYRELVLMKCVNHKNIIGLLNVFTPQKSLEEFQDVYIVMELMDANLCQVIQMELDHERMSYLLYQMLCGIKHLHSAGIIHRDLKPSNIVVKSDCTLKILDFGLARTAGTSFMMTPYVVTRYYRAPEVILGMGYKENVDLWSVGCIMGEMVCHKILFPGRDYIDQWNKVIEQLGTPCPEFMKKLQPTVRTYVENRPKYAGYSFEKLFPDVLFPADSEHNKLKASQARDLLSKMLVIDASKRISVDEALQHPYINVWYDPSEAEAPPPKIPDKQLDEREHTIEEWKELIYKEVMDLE
row,SMILES,inhibition at 1 µM [%]
1,"O[C@H]1CC[C@H](Nc2ncc3ccc(OC(CN4CCOCC4)c4ccccc4)cc3n2)CC1 (stereo partly drawn) [Example 298, trans-4-{[7-(2-morpholin-4-yl-1-phenylethoxy)quinazolin-2-yl]amino}cyclohexanol]",18
2,"CCc1ccc(C)nc1NC(=O)c1cccc2cnc(N[C@H]3CC[C@H](O)CC3)nc12 [Example 314, N-(3-ethyl-6-methylpyridin-2-yl)-2-[(trans-4-hydroxycyclohexyl)amino]quinazoline-8-carboxamide]",11
3,"COc1ncccc1NC(=O)c1cccc2cnc(N[C@H]3CC[C@H](O)CC3)nc12 [Example 316, 2-[(trans-4-hydroxycyclohexyl)amino]-N-(2-methoxypyridin-3-yl)quinazoline-8-carboxamide]",18
4,"Cn1nc(-c2ccncc2)cc1NC(=O)c1cccc2cnc(N[C@H]3CC[C@H](O)CC3)nc12 [Example 317, 2-[(trans-4-hydroxycyclohexyl)amino]-N-(1-methyl-3-pyridin-4-yl-1H-pyrazol-5-yl)quinazoline-8-carboxamide]",31
5,"Cc1nn(C)c(C)c1NC(=O)c1cccc2cnc(N[C@H]3CC[C@H](O)CC3)nc12 [Example 318, 2-[(trans-4-hydroxycyclohexyl)amino]-N-(1,3,5-trimethyl-1H-pyrazol-4-yl)quinazoline-8-carboxamide]",37
6,"CN(C)c1ncccc1NC(=O)c1cccc2cnc(N[C@H]3CC[C@H](O)CC3)nc12 [Example 319, N-[2-(dimethylamino)pyridin-3-yl]-2-[(trans-4-hydroxycyclohexyl)amino]quinazoline-8-carboxamide]",27
7,"CCn1ncnc1NC(=O)c1cccc2cnc(N[C@H]3CC[C@H](O)CC3)nc12 [Example 320, N-(1-ethyl-1H-1,2,4-triazol-5-yl)-2-[(trans-4-hydroxycyclohexyl)amino]quinazoline-8-carboxamide]",19
8,"CC(C)c1ncc(NC(=O)c2cccc3cnc(N[C@H]4CC[C@H](O)CC4)nc23)cn1 [Example 321, 2-[(trans-4-hydroxycyclohexyl)amino]-N-(2-isopropylpyrimidin-5-yl)quinazoline-8-carboxamide]",39
9,"Cc1cc(NC(=O)c2cccc3cnc(N[C@H]4CC[C@H](O)CC4)nc23)nc(C)n1 [Example 322, N-(2,6-dimethylpyrimidin-4-yl)-2-[(trans-4-hydroxycyclohexyl)amino]quinazoline-8-carboxamide]",18

# Second part, the compound after the results:
row,inhibition at 1 µM [%],SMILES
1,42,"Cc1nnc(NC(=O)c2cccc3cnc(N[C@H]4CC[C@H](O)CC4)nc23)o1 [Example 323, 2-[(trans-4-hydroxycyclohexyl)amino]-N-(5-methyl-1,3,4-oxadiazol-2-yl)quinazoline-8-carboxamide]"
2,9,"Cc1cc(NC(=O)c2cccc3cnc(N[C@H]4CC[C@H](O)CC4)nc23)n(-c2ccccn2)n1 [Example 325, 2-[(trans-4-hydroxycyclohexyl)amino]-N-(3-methyl-1-pyridin-2-yl-1H-pyrazol-5-yl)quinazoline-8-carboxamide]"

# Same assay, conditions: @10 uM; read-out: % Inhibition JNK-1
row,inhibition at 10 µM [%],SMILES
1,36,"O=C(Nc1ccnn1Cc1ccccc1)c1cccc2cnc(N[C@H]3CC[C@H](O)CC3)nc12 [Example 311, N-(1-benzyl-1H-pyrazol-5-yl)-2-[(trans-4-hydroxycyclohexyl)amino]quinazoline-8-carboxamide]"
2,76,"Cc1cc(NC(=O)c2cccc3cnc(N[C@H]4CC[C@H](O)CC4)nc23)n(C(C)C)n1 [Example 312, 2-[(trans-4-hydroxycyclohexyl)amino]-N-(1-isopropyl-3-methyl-1H-pyrazol-5-yl)quinazoline-8-carboxamide]"
3,71,"Cc1cc(C)nc(NC(=O)c2cccc3cnc(N[C@H]4CC[C@H](O)CC4)nc23)n1 [Example 313, N-(4,6-dimethylpyrimidin-2-yl)-2-[(trans-4-hydroxycyclohexyl)amino]quinazoline-8-carboxamide]"
4,52,"O=C(Nc1nccc2cccnc12)c1cccc2cnc(N[C@H]3CC[C@H](O)CC3)nc12 [Example 315, 2-[(trans-4-hydroxycyclohexyl)amino]-N-1,7-naphthyridin-8-ylquinazoline-8-carboxamide]"
5,26,"O=C(Nc1cccnc1N1CCOCC1)c1cccc2cnc(N[C@H]3CC[C@H](O)CC3)nc12 [Example 324, 2-[(trans-4-hydroxycyclohexyl)amino]-N-(2-morpholin-4-ylpyridin-3-yl)quinazoline-8-carboxamide]"

# Same assay, conditions: JNK-1
row,Ki [nM],SMILES
1,193,"O=C(NC(CO)c1ccccc1)c1ccc2cnc(N[C@H]3CC[C@H](O)CC3)nc2c1 (stereo partly drawn) [Example 326, 2-{(trans-4-hydroxycyclohexyl)amino]-N-(2-hydroxy-1-phenylethyl)quinazoline-7-carboxamide]"
2,254,"O=C(NCC1(O)CCCCC1)c1ccc2cnc(N[C@H]3CC[C@H](O)CC3)nc2c1 [Example 327, 2-[(trans-4-hydroxycyclohexyl)amino]-N-[(1-hydroxycyclohexyl)methyl]quinazoline-7-carboxamide]"
3,257,"O=C(N[C@H]1CC[C@H](O)CC1)c1ccc2cnc(N[C@H]3CC[C@H](O)CC3)nc2c1 [Example 328, N-(trans-4-hydroxycyclohexyl)2[(trans-4-hydroxycyclohexyl)amino]quinazoline-7-carboxamide]"
4,354,"O=C(Nc1ccccn1)c1ccc2cnc(N[C@H]3CC[C@H](O)CC3)nc2c1 [Example 330, 2-[(trans-4-hydroxycyclohexyl)amino]-N-pyridin-2-ylquinazoline-7-carboxamide]"
5,410,"CN(C)c1ncccc1NC(=O)c1ccc2cnc(N[C@H]3CC[C@H](O)CC3)nc2c1 [Example 331, N-[2-(dimethylamino)pyridin-3-yl]-2-[(trans-4-hydroxycyclohexyl)amino]quinazoline-7-carboxamide]"
6,424,"CCCC(CO)NC(=O)c1ccc2cnc(N[C@H]3CC[C@H](O)CC3)nc2c1 (stereo partly drawn) [Example 332, 2-[(trans-4-hydroxycyclohexyl)amino]-N-[1-(hydroxymethyl)butyl]quinazoline-7-carboxamide]"
7,455,"CCn1ccnc1CNC(=O)c1ccc2cnc(N[C@H]3CC[C@H](O)CC3)nc2c1 [Example 333, N-[(1-ethyl-1H-imidazol-2-yl)methyl]-2-([trans-4-hydroxycyclohexyl)amino]quinazoline-7-carboxamide]"
8,480,"CC[C@@H](CO)NC(=O)c1ccc2cnc(N[C@H]3CC[C@H](O)CC3)nc2c1 [Example 334, 2-[(trans-4-hydroxycyclohexyl)amino]-N-[(1S)-1-(hydroxymethyl)propyl]quinazoline-7-carboxamide]"
9,483,"CC1(CNC(=O)c2ccc3cnc(N[C@H]4CC[C@H](O)CC4)nc3c2)COC1 [Example 335, 2-[(trans-4-hydroxycyclohexyl)amino]-N-[(3-methyloxetan-3-yl)methyl]quinazoline-7-carboxamide]"
10,516,"O=C(N[C@H]1CC[C@@H](CO)CC1)c1ccc2cnc(N[C@H]3CC[C@H](O)CC3)nc2c1 [Example 336, 2-[(trans-4-hydroxycyclohexyl)amino]-N-[cis-4-(hydroxymethyl)cyclohexyl]quinazoline-7-carboxamide]"
11,568,"O=C(N[C@@H](CO)c1ccccc1)c1ccc2cnc(N[C@H]3CC[C@H](O)CC3)nc2c1 [Example 337, 2-[(trans-4-hydroxycyclohexyl)amino]-N-[(1R)-2-hydroxy-1-phenylethyl]quinazoline-7-carboxamide]"
